In US12655116B2, “Substituted isophthalic acid diamides” (Bayer Aktiengesellschaft, priority 2020, dated 2026):

Experiments:
[1] = test system: ALOMY; assay: Post-emergence herbicidal action against ALOMY; assay type: in vivo, Alopecurus myosuroides; conditions: Alopecurus myosuroides, 504 h, visual assessment about 3 weeks after treatment vs untreated controls; for pest or weed control at 20 g/ha: dosage 20 g/ha
Method in brief: (§1)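 A WP or EC formulation diluted in water with 0.2% wetting agent was sprayed at 600 to 800 l/ha onto one-leaf-stage plants grown in sandy loam. About 3 weeks later, action was rated visually in percent, 100% being dead plants.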

[2] = test system: VIOTR; assay: Pre-emergence herbicidal action against VIOTR; assay type: in vivo, Viola tricolor; conditions: Viola tricolor, 504 h; for pest or weed control at 80 g/ha: dosage 80 g/ha
Method in brief: (§2)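 Greenhouse pots of sandy loam held seeds covered with soil, onto which the compound was applied before emergence. An aqueous suspension or emulsion of WP or EC was used at 600 to 800 l/ha with 0.2% wetting agent. Percent damage was judged visually at 3 weeks.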

[3] = test system: LOLRI; assay: Post-emergence herbicidal action against LOLRI; assay type: in vivo, Lolium rigidum; conditions: Lolium rigidum, 504 h
Method in brief: as §1

[4] = test system: LOLRI; assay: Pre-emergence herbicidal action against LOLRI; assay type: in vivo, Lolium rigidum; conditions: Lolium rigidum, 504 h
Method in brief: as §2

[5] = test system: AVEFA; assay: Pre-emergence herbicidal action against AVEFA; assay type: in vivo, Avena fatua; conditions: Avena fatua, 504 h, pre-emergence
Method in brief: as §2

[6] = test system: ECHCG; assay: Post-emergence herbicidal action against ECHCG; assay type: in vivo, Echinochloa crus-galli; conditions: Echinochloa crus-galli, 504 h; for pest or weed control at 20 g/ha: dosage 20 g/ha
Method in brief: as §1

[7] = test system: STEME; assay: Pre-emergence herbicidal action against STEME; assay type: in vivo, Stellaria media; conditions: Stellaria media, 504 h; for pest or weed control at 80 g/ha: dosage 80 g/ha
Method in brief: as §2

[8] = test system: SETVI; assay: Post-emergence herbicidal action against SETVI; assay type: in vivo, Setaria viridis; conditions: Setaria viridis, 504 h; for pest or weed control at 20 g/ha: dosage 20 g/ha
Method in brief: as §1

[9] = test system: POLCO; assay: Pre-emergence herbicidal action against POLCO; assay type: in vivo, Polygonum convolvulus; conditions: Fallopia convolvulus, 504 h
Method in brief: as §2

[10] = test system: ABUTH; assay: Pre-emergence herbicidal action against ABUTH; assay type: in vivo, Abutilon theophrasti; conditions: Abutilon theophrasti, 504 h; for pest or weed control at 80 g/ha: scored visually after 3 weeks vs untreated controls (100% = plants have died, 0% = like control plants); for pest or weed control at 20 g/ha: dosage 20 g/ha, scored visually after 3 weeks vs untreated controls, read-out: Pre-emergence action against ABUTH (herbicidal activity in percent)
Method in brief: as §2

[11] = test system: AMARE; assay: Post-emergence herbicidal action against AMARE; assay type: in vivo, Amaranthus retroflexus; conditions: Amaranthus retroflexus, 504 h, visual assessment about 3 weeks after treatment, 100% = plants have died, 0% = like control plants
Method in brief: as §1

[12] = test system: ABUTH; assay: Post-emergence herbicidal action against ABUTH; assay type: in vivo, Abutilon theophrasti; conditions: Abutilon theophrasti, 504 h, visual assessment about 3 weeks after treatment vs untreated controls; for pest or weed control at 5 g/ha: dosage 5 g/ha; for pest or weed control at 20 g/ha: dosage 20 g/ha
Method in brief: as §1

[13] = test system: VIOTR; assay: Post-emergence herbicidal action against VIOTR; assay type: in vivo, Viola tricolor; conditions: Viola tricolor, 504 h
Method in brief: as §1

[14] = test system: VERPE; assay: Pre-emergence herbicidal action against VERPE; assay type: in vivo, Veronica persica; conditions: Veronica persica, 504 h; for pest or weed control at 80 g/ha: dosage 80 g/ha
Method in brief: as §2

[15] = test system: ALOMY; assay: Pre-emergence herbicidal action against ALOMY; assay type: in vivo, Alopecurus myosuroides; conditions: Alopecurus myosuroides, 504 h, pre-emergence; for pest or weed control at 80 g/ha: scored visually after 3 weeks vs untreated controls (100% = plants have died, 0% = like control plants)
Method in brief: as §2

[16] = test system: HORMU; assay: Pre-emergence herbicidal action against HORMU; assay type: in vivo, Hordeum murinum; conditions: Hordeum murinum, 504 h, pre-emergence
Method in brief: as §2

[17] = test system: HORMU; assay: Post-emergence herbicidal action against HORMU; assay type: in vivo, Hordeum murinum; conditions: Hordeum murinum, 504 h
Method in brief: as §1

[18] = test system: SETVI; assay: Pre-emergence herbicidal action against SETVI; assay type: in vivo, Setaria viridis; conditions: Setaria viridis, 504 h; for pest or weed control at 80 g/ha: dosage 80 g/ha
Method in brief: as §2

[19] = test system: VERPE; assay: Post-emergence herbicidal action against VERPE; assay type: in vivo, Veronica persica; conditions: Veronica persica, 504 h
Method in brief: as §1

[20] = test system: AMARE; assay: Pre-emergence herbicidal action against AMARE; assay type: in vivo, Amaranthus retroflexus; conditions: Amaranthus retroflexus, 504 h, 100% = plants have died, 0% = like control plants; for pest or weed control at 20 g/ha / pest or weed control at 80 g/ha: scored visually after 3 weeks vs untreated controls
Method in brief: as §2

[21] = test system: ECHCG; assay: Pre-emergence herbicidal action against ECHCG; assay type: in vivo, Echinochloa crus-galli; conditions: Echinochloa crus-galli, 504 h
Method in brief: as §2

[22] = 100% = plants have died, 0% = like control plants
[23] = 320 g/ha, scored visually after 3 weeks, 100% = plants have died, 0% = like control plants

CCc1c(C(=O)Nc2nnnn2C)ccc(C(F)(F)F)c1C(=O)NC1CC1 [Example 1-273]
pest or weed control at 5 g/ha ([1]; dosage 5 g/ha): 80% | pest or weed control at 20 g/ha [1]: 100% | pest or weed control at 20 g/ha ([2]; dosage 20 g/ha): 100% | pest or weed control at 80 g/ha [2]: 100% | pest or weed control at 20 g/ha ([3]; dosage 20 g/ha): 80% | pest or weed control at 80 g/ha ([4]; 80 g/ha): 80% | pest or weed control at 80 g/ha [5]: 100% | pest or weed control at 5 g/ha ([6]; dosage 5 g/ha): 80% | pest or weed control at 20 g/ha [6]: 90% | pest or weed control at 20 g/ha ([7]; dosage 20 g/ha): 100% | pest or weed control at 80 g/ha [7]: 100% | pest or weed control at 5 g/ha ([8]; dosage 5 g/ha): 80% | pest or weed control at 20 g/ha [8]: 100% | pest or weed control at 80 g/ha ([9]; dosage 80 g/ha): 90% | pest or weed control at 80 g/ha [10]: 100% | pest or weed control at 20 g/ha [10, 22]: 100% | pest or weed control at 20 g/ha [11]: 100% | pest or weed control at 5 g/ha [12]: 90% | pest or weed control at 20 g/ha [12]: 90% | pest or weed control at 5 g/ha ([13]; 5 g/ha): 100% | pest or weed control at 20 g/ha [13]: 100% | pest or weed control at 80 g/ha [14]: 90% | pest or weed control at 80 g/ha [15]: 90% | pest or weed control at 80 g/ha [16]: 80% | pest or weed control at 5 g/ha ([17]; dosage 5 g/ha): 80% | pest or weed control at 20 g/ha ([17]; dosage 20 g/ha): 90% | pest or weed control at 20 g/ha ([18]; dosage 20 g/ha): 100% | pest or weed control at 80 g/ha [18]: 100% | pest or weed control at 20 g/ha [19]: 90% | pest or weed control at 20 g/ha [20]: 100% | pest or weed control at 80 g/ha [20]: 100% | pest or weed control at 20 g/ha ([21]; 20 g/ha): 90% | pest or weed control at 80 g/ha [21]: 100%

CCn1nnnc1NC(=O)c1ccc(C(F)(F)F)c(C(N)=O)c1Cl [Example 2-338]
pest or weed control at 20 g/ha [1]: 80% | pest or weed control at 80 g/ha ([1]; dosage 80 g/ha): 100% | pest or weed control at 80 g/ha [2]: 100% | pest or weed control at 320 g/ha ([2]; dosage 320 g/ha): 100% | pest or weed control at 80 g/ha ([3]; dosage 80 g/ha): 90% | pest or weed control at 320 g/ha ([4]; 320 g/ha): 100% | pest or weed control at 80 g/ha [5]: 90% | pest or weed control at 320 g/ha [5, 23]: 100% | pest or weed control at 20 g/ha [6]: 80% | pest or weed control at 80 g/ha ([6]; dosage 80 g/ha): 100% | pest or weed control at 80 g/ha [7]: 90% | pest or weed control at 320 g/ha ([7]; dosage 320 g/ha): 100% | pest or weed control at 20 g/ha [8]: 80% | pest or weed control at 80 g/ha ([8]; dosage 80 g/ha): 100% | pest or weed control at 320 g/ha ([9]; dosage 320 g/ha): 90% | pest or weed control at 80 g/ha [10]: 100% | pest or weed control at 320 g/ha ([10]; Dosage: 320 g/ha, scored visually after 3 weeks, 100% = plants have died, 0% = like control plants): 100% | pest or weed control at 20 g/ha [10, 22]: 90% | pest or weed control at 20 g/ha [11]: 100% | pest or weed control at 80 g/ha ([11]; 80 g/ha): 100% | pest or weed control at 5 g/ha [12]: 100% | pest or weed control at 20 g/ha [12]: 100% | pest or weed control at 80 g/ha ([12]; dosage 80 g/ha): 100% | pest or weed control at 20 g/ha [13]: 100% | pest or weed control at 80 g/ha ([13]; 80 g/ha): 100% | pest or weed control at 80 g/ha [14]: 100% | pest or weed control at 320 g/ha ([14]; dosage 320 g/ha): 100% | pest or weed control at 80 g/ha [15]: 90% | pest or weed control at 320 g/ha [15, 23]: 100% | pest or weed control at 80 g/ha [16]: 80% | pest or weed control at 320 g/ha ([16]; 320 g/ha): 100% | pest or weed control at 80 g/ha ([17]; dosage 80 g/ha): 100% | pest or weed control at 80 g/ha [18]: 90% | pest or weed control at 320 g/ha ([18]; dosage 320 g/ha): 100% | pest or weed control at 20 g/ha [19]: 90% | pest or weed control at 80 g/ha ([19]; 80 g/ha): 100% | pest or weed control at 20 g/ha [20]: 90% | pest or weed control at 80 g/ha [20]: 100% | pest or weed control at 320 g/ha ([20]; 320 g/ha, scored visually after 3 weeks): 100% | pest or weed control at 80 g/ha [21]: 90% | pest or weed control at 320 g/ha ([21]; 320 g/ha): 100%
